This assay addresses Head(wt) (NTS-DBL1α1-CIDR1γ of PfEMP1-VarO) (Plasmodium falciparum, UniProt B7T1P0). Kind of assay: surface plasmon resonance (Biacore […]), immobilised trisaccharide-BSA. The format is binding. The following applies: labelled compound: multivalent BSA conjugate, 6 atom spacer, average 21 sugar residues per BSA; PBS, 25 °C; protein 10 nM-1 µM. (In general: Surface plasmon resonance follows binding to a sensor surface in real time, without labels.)

Turning to `C[C@@H]1O[C@@H](O[C@H]2C(O)O[C@H](CO)[C@H](O)[C@@H]2O[C@H]2O[C@H](CO)[C@H](O)[C@H](O)[C@H]2O)[C@@H](O)[C@H](O)[C@@H]1O` (stereo partly shown) [blood group B trisaccharide], the “surface plasmon resonance (Biacore 2000), immobilised trisaccharide-BSA” value was “Direct binding of the recombinant Head(wt)domain to the blood group A and B trisaccharides”.
